Measured values from PubChem BioAssay (NCI).
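Abbreviation: GI50, concentration required for 50% inhibition of growth. TGI marks complete inhibition of growth.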

What was measured:
Assay in all cases: inhibition of tumour cell growth, NCI panel, 384-well format
SN12C renal = tested on: SN12C renal
UACC-257 melanoma = tested on: UACC-257 melanoma
KM12 colon = tested on: KM12 colon
RPMI-8226 leukemia = tested on: RPMI-8226 leukemia
SNB-75 CNS = tested on: SNB-75 CNS
MALME-3M melanoma = tested on: MALME-3M melanoma
DU-145 prostate = tested on: DU-145 prostate
786-0 renal = tested on: 786-0 renal
HL-60(TB) leukemia = tested on: HL-60(TB) leukemia
A549 NSCLC = tested on: A549 NSCLC
HOP-92 NSCLC = tested on: HOP-92 NSCLC
ACHN renal = tested on: ACHN renal
SNB-19 CNS = tested on: SNB-19 CNS
SR leukemia = tested on: SR leukemia
BT-549 breast = tested on: BT-549 breast
EKVX NSCLC = tested on: EKVX NSCLC
HCT-15 colon = tested on: HCT-15 colon
SK-MEL-28 melanoma = tested on: SK-MEL-28 melanoma
CAKI-1 renal = tested on: CAKI-1 renal
SF-268 CNS = tested on: SF-268 CNS
HS 578T breast = tested on: HS 578T breast
NCI-H460 NSCLC = tested on: NCI-H460 NSCLC
SW-620 colon = tested on: SW-620 colon
OVCAR-4 ovarian = tested on: OVCAR-4 ovarian
COLO 205 colon = tested on: COLO 205 colon
MCF7 breast = tested on: MCF7 breast
PC-3 prostate = tested on: PC-3 prostate
IGROV1 ovarian = tested on: IGROV1 ovarian
TK-10 renal = tested on: TK-10 renal
OVCAR-3 ovarian = tested on: OVCAR-3 ovarian
HCC-2998 colon = tested on: HCC-2998 colon
SK-MEL-5 melanoma = tested on: SK-MEL-5 melanoma
A498 renal = tested on: A498 renal
HCT-116 colon = tested on: HCT-116 colon
CCRF-CEM leukemia = tested on: CCRF-CEM leukemia
UACC-62 melanoma = tested on: UACC-62 melanoma
OVCAR-5 ovarian = tested on: OVCAR-5 ovarian
MDA-MB-435 melanoma = tested on: MDA-MB-435 melanoma
SF-539 CNS = tested on: SF-539 CNS
MDA-MB-231 breast = tested on: MDA-MB-231 breast
RXF 393 renal = tested on: RXF 393 renal
MOLT-4 leukemia = tested on: MOLT-4 leukemia
T-47D breast = tested on: T-47D breast
NCI/ADR-RES ovarian = tested on: NCI/ADR-RES ovarian
U251 glioblastoma = tested on: U251 glioblastoma
LOX IMVI melanoma = tested on: LOX IMVI melanoma
NCI-H322M lung = tested on: NCI-H322M lung
NCI-H226 lung = tested on: NCI-H226 lung
M14 melanoma = tested on: M14 melanoma
SK-OV-3 ovarian = tested on: SK-OV-3 ovarian
HOP-62 NSCLC = tested on: HOP-62 NSCLC
NCI-H23 lung = tested on: NCI-H23 lung
OVCAR-8 ovarian = tested on: OVCAR-8 ovarian
SF-295 CNS = tested on: SF-295 CNS
NCI-H522 lung = tested on: NCI-H522 lung
HT29 colon = tested on: HT29 colon
MDA-MB-468 breast = tested on: MDA-MB-468 breast
UO-31 renal = tested on: UO-31 renal

SMILES: CC#CC(=O)N1CCC[C@H]1c1nc(-c2ccc(C(=O)Nc3ccccn3)cc2)c2c(N)nccn12
- GI50 (SN12C renal): 98 µM
- TGI (SN12C renal): > 100 µM
- GI50 (UACC-257 melanoma): 67.7 µM
- TGI (UACC-257 melanoma): > 100 µM
- GI50 (KM12 colon): > 100 µM
- TGI (KM12 colon): > 100 µM
- GI50 (RPMI-8226 leukemia): 48.5 µM
- TGI (RPMI-8226 leukemia): > 100 µM
- GI50 (SNB-75 CNS): 29.7 µM
- TGI (SNB-75 CNS): > 83 µM
- GI50 (MALME-3M melanoma): > 58.9 µM
- TGI (MALME-3M melanoma): > 100 µM
- GI50 (DU-145 prostate): 82 µM
- TGI (DU-145 prostate): > 100 µM
- GI50 (786-0 renal): > 74.8 µM
- TGI (786-0 renal): > 100 µM
- GI50 (HL-60(TB) leukemia): > 100 µM
- TGI (HL-60(TB) leukemia): > 100 µM
- GI50 (A549 NSCLC): 51.9 µM
- TGI (A549 NSCLC): > 100 µM
- GI50 (HOP-92 NSCLC): 68.8 µM
- TGI (HOP-92 NSCLC): > 100 µM
- GI50 (ACHN renal): > 73.2 µM
- TGI (ACHN renal): > 100 µM
- GI50 (SNB-19 CNS): > 100 µM
- TGI (SNB-19 CNS): > 100 µM
- GI50 (SR leukemia): 15.2 µM
- TGI (SR leukemia): 42.1 µM
- GI50 (BT-549 breast): 27.9 µM
- TGI (BT-549 breast): > 91.9 µM
- GI50 (EKVX NSCLC): 73.1 µM
- TGI (EKVX NSCLC): > 100 µM
- GI50 (HCT-15 colon): > 76.2 µM
- TGI (HCT-15 colon): > 100 µM
- GI50 (SK-MEL-28 melanoma): > 100 µM
- TGI (SK-MEL-28 melanoma): > 100 µM
- GI50 (CAKI-1 renal): 57.7 µM
- TGI (CAKI-1 renal): > 100 µM
- GI50 (SF-268 CNS): > 86.4 µM
- TGI (SF-268 CNS): > 100 µM
- GI50 (HS 578T breast): 44.9 µM
- TGI (HS 578T breast): > 100 µM
- GI50 (NCI-H460 NSCLC): 71.8 µM
- TGI (NCI-H460 NSCLC): > 100 µM
- GI50 (SW-620 colon): > 100 µM
- TGI (SW-620 colon): > 100 µM
- GI50 (OVCAR-4 ovarian): > 100 µM
- TGI (OVCAR-4 ovarian): > 100 µM
- GI50 (COLO 205 colon): > 100 µM
- TGI (COLO 205 colon): > 100 µM
- GI50 (MCF7 breast): 50.9 µM
- TGI (MCF7 breast): > 100 µM
- GI50 (PC-3 prostate): > 100 µM
- TGI (PC-3 prostate): > 100 µM
- GI50 (IGROV1 ovarian): 20 µM
- TGI (IGROV1 ovarian): 64.3 µM
- GI50 (TK-10 renal): 57.2 µM
- TGI (TK-10 renal): > 100 µM
- GI50 (OVCAR-3 ovarian): 44.8 µM
- TGI (OVCAR-3 ovarian): > 100 µM
- GI50 (HCC-2998 colon): > 100 µM
- TGI (HCC-2998 colon): > 100 µM
- GI50 (SK-MEL-5 melanoma): 60.5 µM
- TGI (SK-MEL-5 melanoma): > 100 µM
- GI50 (A498 renal): 59.6 µM
- TGI (A498 renal): > 100 µM
- GI50 (HCT-116 colon): 47.9 µM
- TGI (HCT-116 colon): > 100 µM
- GI50 (CCRF-CEM leukemia): 85.3 µM
- TGI (CCRF-CEM leukemia): > 100 µM
- GI50 (UACC-62 melanoma): 39.9 µM
- TGI (UACC-62 melanoma): > 100 µM
- GI50 (OVCAR-5 ovarian): > 100 µM
- TGI (OVCAR-5 ovarian): > 100 µM
- GI50 (MDA-MB-435 melanoma): > 100 µM
- TGI (MDA-MB-435 melanoma): > 100 µM
- GI50 (SF-539 CNS): > 100 µM
- TGI (SF-539 CNS): > 100 µM
- GI50 (MDA-MB-231 breast): 38.3 µM
- TGI (MDA-MB-231 breast): > 100 µM
- GI50 (RXF 393 renal): 14.2 µM
- TGI (RXF 393 renal): > 60.9 µM
- GI50 (MOLT-4 leukemia): 18.8 µM
- TGI (MOLT-4 leukemia): 36.1 µM
- GI50 (T-47D breast): 40.1 µM
- TGI (T-47D breast): > 100 µM
- GI50 (NCI/ADR-RES ovarian): > 100 µM
- TGI (NCI/ADR-RES ovarian): > 100 µM
- GI50 (U251 glioblastoma): > 100 µM
- TGI (U251 glioblastoma): > 100 µM
- GI50 (LOX IMVI melanoma): > 89.2 µM
- TGI (LOX IMVI melanoma): > 100 µM
- GI50 (NCI-H322M lung): 31.6 µM
- TGI (NCI-H322M lung): > 88.3 µM
- GI50 (NCI-H226 lung): 41.6 µM
- TGI (NCI-H226 lung): 98.4 µM
- GI50 (M14 melanoma): 74.8 µM
- TGI (M14 melanoma): > 100 µM
- GI50 (SK-OV-3 ovarian): 71.4 µM
- TGI (SK-OV-3 ovarian): > 100 µM
- GI50 (HOP-62 NSCLC): 42 µM
- TGI (HOP-62 NSCLC): > 100 µM
- GI50 (NCI-H23 lung): > 100 µM
- TGI (NCI-H23 lung): > 100 µM
- GI50 (OVCAR-8 ovarian): > 90 µM
- TGI (OVCAR-8 ovarian): > 100 µM
- GI50 (SF-295 CNS): > 100 µM
- TGI (SF-295 CNS): > 100 µM
- GI50 (NCI-H522 lung): 5.87 µM
- TGI (NCI-H522 lung): > 80.8 µM
- GI50 (HT29 colon): 84.8 µM
- TGI (HT29 colon): > 100 µM
- GI50 (MDA-MB-468 breast): 15.5 µM
- TGI (MDA-MB-468 breast): 40.7 µM
- GI50 (UO-31 renal): > 95.6 µM
- TGI (UO-31 renal): > 100 µM
